From ChEMBL document CHEMBL1201862, “PubChem BioAssay data set” (2004)
Calls of active or inactive are those of the source.

Columns and labels:
[1] = Late stage results from the probe development effort to identify inhibitors of the protein methylesterase PME-1: Luminescence-based counterscreen assay to identify cytotoxic compounds.; format: functional
[2] = target: Acylamino-acid-releasing enzyme (Homo sapiens, UniProt P13798); experiment: endogenous PME-1 and serine hydrolase inhibition – cell lysate, mouse brain cytosol, FP-rhodamine, gel ABPP, selectivity assay for PME-1 inhibitor project, dose response, panel member APEH Assay Panel member description: Inhibition of N-acylaminoacyl-peptide hydrolase (APEH) (anti-target) (AID 2366)
Chain of Acylamino-acid-releasing enzyme (P13798 whole entry): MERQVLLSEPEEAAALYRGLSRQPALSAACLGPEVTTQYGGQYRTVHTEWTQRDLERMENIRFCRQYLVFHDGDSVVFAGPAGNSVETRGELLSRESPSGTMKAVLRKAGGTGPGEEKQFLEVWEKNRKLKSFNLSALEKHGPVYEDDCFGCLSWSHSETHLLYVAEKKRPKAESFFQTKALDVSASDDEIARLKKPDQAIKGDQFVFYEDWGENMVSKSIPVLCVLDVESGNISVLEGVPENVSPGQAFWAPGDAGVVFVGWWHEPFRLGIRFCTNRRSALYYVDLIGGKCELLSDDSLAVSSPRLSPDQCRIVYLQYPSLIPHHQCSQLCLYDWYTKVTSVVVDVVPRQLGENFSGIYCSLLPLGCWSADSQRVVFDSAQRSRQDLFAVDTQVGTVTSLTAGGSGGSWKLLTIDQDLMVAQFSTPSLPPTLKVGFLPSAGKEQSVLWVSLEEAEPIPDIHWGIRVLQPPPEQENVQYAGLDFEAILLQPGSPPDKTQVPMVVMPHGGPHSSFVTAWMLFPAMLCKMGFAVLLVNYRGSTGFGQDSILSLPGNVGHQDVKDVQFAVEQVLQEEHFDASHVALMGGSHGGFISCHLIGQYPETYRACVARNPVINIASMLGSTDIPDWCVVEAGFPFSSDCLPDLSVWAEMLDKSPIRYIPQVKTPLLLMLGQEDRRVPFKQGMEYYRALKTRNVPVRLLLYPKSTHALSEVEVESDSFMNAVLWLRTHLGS

[3] = target: G-protein coupled receptor 55 (Homo sapiens, UniProt Q9Y2T6); experiment: selective activators of receptor GPR55 – imaging, U2OS cells, beta-arrestin-GFP redistribution, primary screen (AID 1961); format: functional
Paired box protein Pax-8 = Paired box protein Pax-8 (Homo sapiens, UniProt Q06710); experiment: PAX8 transcriptional activity inhibition in RMG-I – RMG-I cells, luciferase, cherry-pick, dose response (AID 687027); format: functional, cell-based;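 also: luciferase reporter driven by Pax8 target thyroperoxidase promoter measured by SteadyGlo luminescence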
Chain of Paired box protein Pax-8 (Q06710 whole entry): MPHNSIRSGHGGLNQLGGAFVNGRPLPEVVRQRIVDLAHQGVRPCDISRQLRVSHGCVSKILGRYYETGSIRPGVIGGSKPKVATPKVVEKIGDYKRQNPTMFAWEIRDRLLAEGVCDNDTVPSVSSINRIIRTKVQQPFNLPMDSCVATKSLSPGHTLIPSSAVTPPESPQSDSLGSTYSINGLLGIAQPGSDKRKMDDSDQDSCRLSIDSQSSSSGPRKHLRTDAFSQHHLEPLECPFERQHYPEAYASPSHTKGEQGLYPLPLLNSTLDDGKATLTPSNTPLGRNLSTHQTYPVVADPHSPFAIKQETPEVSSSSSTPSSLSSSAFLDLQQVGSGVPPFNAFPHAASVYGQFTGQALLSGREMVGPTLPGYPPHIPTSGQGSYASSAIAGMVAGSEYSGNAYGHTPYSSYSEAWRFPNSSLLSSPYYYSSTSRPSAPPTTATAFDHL

INS1 = experiment: INS-1E survival protection against cytokine death – cell-based, luminescence, retest, dose response (AID 449756); format: functional; conditions: Rattus norvegicus;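 also: cell death triggered by IL-1 beta plus TNF-alpha plus IFN-gamma mixture; protective hits raise ATP signal compared with cytokine alone wells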
[4] = target: T1, Replicative DNA helicase DnaB (Mycobacterium tuberculosis, UniProt P9WMR3); experiment: DnaB intein splicing inhibitors, dose response, biochemical, cell-free fluorescence (AID 449749); format: functional
T1 sequence (P9WMR3 whole entry): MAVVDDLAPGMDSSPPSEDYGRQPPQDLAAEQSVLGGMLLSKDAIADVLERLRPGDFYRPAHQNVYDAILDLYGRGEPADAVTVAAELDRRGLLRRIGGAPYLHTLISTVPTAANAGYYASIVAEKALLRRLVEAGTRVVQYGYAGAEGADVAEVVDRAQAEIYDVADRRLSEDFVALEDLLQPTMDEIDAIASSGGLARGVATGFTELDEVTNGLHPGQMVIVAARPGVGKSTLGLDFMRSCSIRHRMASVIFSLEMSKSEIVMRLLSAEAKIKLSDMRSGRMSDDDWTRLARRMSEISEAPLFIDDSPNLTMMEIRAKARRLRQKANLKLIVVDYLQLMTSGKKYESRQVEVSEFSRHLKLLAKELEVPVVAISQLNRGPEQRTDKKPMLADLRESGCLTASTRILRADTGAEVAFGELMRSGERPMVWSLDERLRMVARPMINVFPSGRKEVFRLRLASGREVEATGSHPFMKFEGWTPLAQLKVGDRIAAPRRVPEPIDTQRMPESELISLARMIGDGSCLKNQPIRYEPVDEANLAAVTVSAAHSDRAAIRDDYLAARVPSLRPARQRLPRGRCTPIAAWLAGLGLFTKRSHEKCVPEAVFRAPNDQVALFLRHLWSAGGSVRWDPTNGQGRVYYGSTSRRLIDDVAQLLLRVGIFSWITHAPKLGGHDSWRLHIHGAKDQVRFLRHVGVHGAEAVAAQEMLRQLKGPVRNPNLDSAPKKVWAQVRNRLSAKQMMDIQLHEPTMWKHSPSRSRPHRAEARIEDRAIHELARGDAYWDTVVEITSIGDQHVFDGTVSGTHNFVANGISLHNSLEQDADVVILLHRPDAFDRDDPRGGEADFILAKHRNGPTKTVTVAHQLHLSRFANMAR

[5] = viability of PTEN-deleted HCT116 cells – cell-based, HCT116 PTEN knockout, dose response (AID 1047); format: functional;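 also: HCT116 colon tumor cells with PTEN knocked out; cells exposed to compound for 60 hours before readout; potency for loss of cell viability measured by luminescence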
[6] = target: G-protein coupled receptor 35 (Homo sapiens, UniProt Q9HC97); experiment: inhibition of zaprinast-stimulated GPR35 beta-arrestin translocation – imaging, U2OS, beta-arrestin-GFP, zaprinast agonist, primary screen (AID 2058); format: functional;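 also: antagonist potency meaning inhibition of agonist-induced arrestin redistribution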
Chain of G-protein coupled receptor 35 (Q9HC97 whole entry): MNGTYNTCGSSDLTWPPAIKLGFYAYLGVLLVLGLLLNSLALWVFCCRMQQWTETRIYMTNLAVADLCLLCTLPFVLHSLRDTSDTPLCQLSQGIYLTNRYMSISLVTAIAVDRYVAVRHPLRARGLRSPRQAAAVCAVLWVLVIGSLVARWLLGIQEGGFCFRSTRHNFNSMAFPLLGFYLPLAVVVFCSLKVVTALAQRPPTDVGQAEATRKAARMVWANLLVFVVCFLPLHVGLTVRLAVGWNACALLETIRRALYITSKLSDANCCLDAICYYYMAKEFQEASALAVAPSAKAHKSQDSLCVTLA

BJ = experiment: growth inhibition of engineered Ras-driven BJ cells – cell-based, alamar blue fluorescence, cherrypicked samples, dose response (AID 2631); format: functional; conditions: Homo sapiens;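 also: confirmatory dose-response assay in RAS-dependent BJ fibroblasts engineered with TERT, LT and ST, with cytotoxicity read by fluorescence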
Protein RecA = target: T2, Protein RecA (Mycobacterium tuberculosis, UniProt P9WHJ3); experiment: Fluorescence Cell-Free Homogeneous Dose Retest to Identify Inhibitors of RecA-Intein Splicing Activity. [Related pubchem assays (depositor defined):AID2097, AID2223, AID489010, AID492950]; format: functional
T2 sequence (P9WHJ3 whole entry): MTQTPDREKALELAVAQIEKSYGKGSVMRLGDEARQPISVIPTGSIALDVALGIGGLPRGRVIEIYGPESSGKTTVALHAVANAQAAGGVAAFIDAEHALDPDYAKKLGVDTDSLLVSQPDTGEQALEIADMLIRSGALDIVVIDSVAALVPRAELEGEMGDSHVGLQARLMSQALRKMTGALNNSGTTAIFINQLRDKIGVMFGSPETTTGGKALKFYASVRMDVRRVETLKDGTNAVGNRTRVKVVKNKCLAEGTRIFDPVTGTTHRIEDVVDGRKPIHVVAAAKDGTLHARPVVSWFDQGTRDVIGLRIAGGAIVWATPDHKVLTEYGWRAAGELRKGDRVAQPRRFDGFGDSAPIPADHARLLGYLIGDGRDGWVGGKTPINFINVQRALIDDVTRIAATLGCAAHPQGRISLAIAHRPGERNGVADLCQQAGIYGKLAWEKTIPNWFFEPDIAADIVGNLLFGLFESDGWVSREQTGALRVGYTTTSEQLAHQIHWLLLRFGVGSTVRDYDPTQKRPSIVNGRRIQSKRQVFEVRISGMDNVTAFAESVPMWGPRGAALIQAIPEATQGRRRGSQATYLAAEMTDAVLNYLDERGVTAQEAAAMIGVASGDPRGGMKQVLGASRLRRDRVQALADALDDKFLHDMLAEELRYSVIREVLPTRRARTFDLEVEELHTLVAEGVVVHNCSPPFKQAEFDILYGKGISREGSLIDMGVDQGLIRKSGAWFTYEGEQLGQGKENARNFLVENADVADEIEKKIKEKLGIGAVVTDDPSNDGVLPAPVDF

[7] = viability of HCT116 lacking mutant beta-catenin – cell-based, human colon tumor, dose response (AID 1045); format: functional;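 also: HCT116 colon tumor cells with beta catenin knocked out; cells exposed to compound for 60 hours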
[8] = target: Eukaryotic translation initiation factor 4H (Homo sapiens, UniProt Q15056); experiment: inhibitors of translation initiation factor eIF4H – SAR follow-up (AID 435011); format: functional
[9] = target: Polyadenylate-binding protein 1 (Homo sapiens, UniProt P11940); experiment: PABP inhibition in translation initiation, SAR follow-up (AID 435018); format: functional
Chain of Polyadenylate-binding protein 1 (P11940 whole entry): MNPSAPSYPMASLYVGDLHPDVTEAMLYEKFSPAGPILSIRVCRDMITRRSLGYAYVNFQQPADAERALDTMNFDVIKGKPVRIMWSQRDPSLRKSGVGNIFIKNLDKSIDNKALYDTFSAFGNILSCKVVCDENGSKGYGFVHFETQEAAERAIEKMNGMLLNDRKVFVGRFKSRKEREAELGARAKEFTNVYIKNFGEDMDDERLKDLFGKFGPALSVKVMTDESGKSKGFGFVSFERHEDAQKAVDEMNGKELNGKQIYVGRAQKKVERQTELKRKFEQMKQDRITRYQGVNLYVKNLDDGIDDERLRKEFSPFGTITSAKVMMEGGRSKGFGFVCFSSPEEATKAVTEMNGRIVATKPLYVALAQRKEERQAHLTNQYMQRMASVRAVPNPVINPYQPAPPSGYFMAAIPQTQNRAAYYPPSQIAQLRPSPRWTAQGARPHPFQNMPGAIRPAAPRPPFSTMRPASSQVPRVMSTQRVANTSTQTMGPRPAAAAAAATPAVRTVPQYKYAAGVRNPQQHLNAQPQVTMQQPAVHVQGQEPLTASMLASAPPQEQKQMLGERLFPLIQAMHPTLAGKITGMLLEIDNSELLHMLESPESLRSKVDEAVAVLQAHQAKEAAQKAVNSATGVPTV

[10] = reduction of Shn3 3'UTR-driven luciferase in osteoblasts – cell-based, Clone20 osteoblasts, firefly luciferase, cherry-picked, dose response (AID 624132); format: functional;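 also: firefly luciferase luminescence from reporter carrying the Shn3 3'UTR in osteoblasts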
[11] = non-specific 3'UTR reporter inhibition in Clone20-Shn3RL – cell-based, Renilla luciferase, cherry-picked, counter-screen for Shn3 inhibitor project, dose response (AID 624133); format: functional
[12] = loss of viability in HepG2 cells – cell-based, CellTiter-Glo, cherry-picked, cytotoxicity control for Shn3 inhibitor project, dose response (AID 624134); format: functional
Beta-galactosidase = Beta-galactosidase (Escherichia coli, UniProt Q8VNN2); experiment: detection-enzyme interference by beta-gal modulators – biochemical, E. coli enzyme, set 3, artefact control for CCR6 antagonist project, dose response (AID 504712); format: functional
Chain of Beta-galactosidase (Q8VNN2 whole entry): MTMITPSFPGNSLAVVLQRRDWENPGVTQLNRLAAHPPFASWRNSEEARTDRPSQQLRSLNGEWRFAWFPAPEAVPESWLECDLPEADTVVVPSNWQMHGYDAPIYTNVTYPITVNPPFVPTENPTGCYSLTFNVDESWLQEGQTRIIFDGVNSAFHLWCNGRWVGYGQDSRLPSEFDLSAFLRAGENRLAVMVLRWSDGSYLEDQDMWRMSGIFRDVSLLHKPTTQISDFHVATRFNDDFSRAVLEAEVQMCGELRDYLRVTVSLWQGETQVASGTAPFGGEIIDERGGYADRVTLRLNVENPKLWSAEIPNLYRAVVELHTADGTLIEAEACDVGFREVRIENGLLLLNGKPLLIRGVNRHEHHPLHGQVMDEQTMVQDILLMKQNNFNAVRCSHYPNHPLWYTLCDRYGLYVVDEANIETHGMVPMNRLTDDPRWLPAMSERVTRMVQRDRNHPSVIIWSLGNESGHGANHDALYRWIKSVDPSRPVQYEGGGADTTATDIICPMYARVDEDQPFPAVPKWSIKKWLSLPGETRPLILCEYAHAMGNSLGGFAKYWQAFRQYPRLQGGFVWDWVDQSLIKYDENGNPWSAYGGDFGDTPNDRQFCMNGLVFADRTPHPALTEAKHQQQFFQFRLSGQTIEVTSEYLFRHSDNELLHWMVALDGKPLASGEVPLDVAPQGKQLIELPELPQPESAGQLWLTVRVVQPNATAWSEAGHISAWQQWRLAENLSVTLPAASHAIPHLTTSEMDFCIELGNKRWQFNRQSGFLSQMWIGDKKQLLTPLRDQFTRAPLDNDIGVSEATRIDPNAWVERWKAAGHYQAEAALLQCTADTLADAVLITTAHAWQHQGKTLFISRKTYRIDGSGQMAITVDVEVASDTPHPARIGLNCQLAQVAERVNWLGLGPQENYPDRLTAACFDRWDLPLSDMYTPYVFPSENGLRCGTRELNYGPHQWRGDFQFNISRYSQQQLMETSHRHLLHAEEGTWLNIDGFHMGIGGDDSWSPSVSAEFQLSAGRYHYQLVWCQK

[13] = target: T3, Neuropeptides B/W receptor type 1 (Homo sapiens, UniProt P48145); experiment: human NPBW1 receptor blockade, IC50 – cell-based, fluorescence, dose response, late-stage follow-up (AID 463251); format: functional
T3 sequence (P48145 whole entry): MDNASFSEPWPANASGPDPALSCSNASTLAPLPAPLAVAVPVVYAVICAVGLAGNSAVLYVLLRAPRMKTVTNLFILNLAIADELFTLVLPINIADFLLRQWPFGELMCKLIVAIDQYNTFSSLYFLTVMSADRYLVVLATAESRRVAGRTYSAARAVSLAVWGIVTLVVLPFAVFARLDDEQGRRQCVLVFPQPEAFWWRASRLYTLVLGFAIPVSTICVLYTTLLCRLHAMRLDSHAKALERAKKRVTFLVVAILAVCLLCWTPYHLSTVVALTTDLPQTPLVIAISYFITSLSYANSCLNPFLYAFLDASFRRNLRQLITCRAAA

[14] = target: Melanin-concentrating hormone receptor 1 (Homo sapiens, UniProt Q99705); experiment: Late-stage fluorescence-based counterscreen for antagonists of the G-protein coupled receptor 7 (GPR7): cell-based dose response assay to identify antagonists of the melanin-concentrating hormone receptor 1 (MCHR1). [Related pubchem assays (depositor defined):AID1861, AID1880, AID1952, AID2148, AID2251, AID2257, AID485339]; format: functional;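 also: stimulated with 30 nM MCH peptide agonist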
Chain of Melanin-concentrating hormone receptor 1 (Q99705 whole entry): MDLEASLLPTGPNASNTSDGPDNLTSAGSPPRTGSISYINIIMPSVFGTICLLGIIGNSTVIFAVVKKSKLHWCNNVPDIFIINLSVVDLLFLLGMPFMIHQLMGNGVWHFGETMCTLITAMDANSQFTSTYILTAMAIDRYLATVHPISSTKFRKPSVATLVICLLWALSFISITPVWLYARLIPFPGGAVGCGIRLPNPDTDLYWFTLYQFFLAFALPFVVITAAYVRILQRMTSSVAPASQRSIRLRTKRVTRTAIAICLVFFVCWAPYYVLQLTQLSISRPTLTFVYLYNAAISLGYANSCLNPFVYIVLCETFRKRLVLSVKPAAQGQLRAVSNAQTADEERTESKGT

[15] = target: T4, Mannose-6-phosphate isomerase (Homo sapiens, UniProt P34949); experiment: phosphomannose isomerase inhibition – biochemical, fluorescence intensity, confirmation (AID 1535)
T4 sequence (P34949 whole entry): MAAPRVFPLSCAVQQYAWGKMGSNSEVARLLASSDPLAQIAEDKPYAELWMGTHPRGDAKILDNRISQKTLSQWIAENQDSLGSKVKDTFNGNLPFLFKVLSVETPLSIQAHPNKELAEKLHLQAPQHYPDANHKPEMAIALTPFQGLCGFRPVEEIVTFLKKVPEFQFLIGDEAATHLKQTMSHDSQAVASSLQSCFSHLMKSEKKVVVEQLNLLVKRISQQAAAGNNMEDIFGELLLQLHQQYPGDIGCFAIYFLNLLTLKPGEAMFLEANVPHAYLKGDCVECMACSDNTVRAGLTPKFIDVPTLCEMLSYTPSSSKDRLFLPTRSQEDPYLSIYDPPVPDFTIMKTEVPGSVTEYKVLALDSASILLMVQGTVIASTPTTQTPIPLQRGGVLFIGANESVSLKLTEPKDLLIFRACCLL

[16] = target: Phosphoethanolamine/phosphocholine phosphatase (Homo sapiens, UniProt Q8TCT1); experiment: SAR assay for compounds that inhibit PHOSPHO1. [Related pubchem assays (depositor defined):AID1545, AID1565, AID1574]
Chain of Phosphoethanolamine/phosphocholine phosphatase (Q8TCT1 whole entry): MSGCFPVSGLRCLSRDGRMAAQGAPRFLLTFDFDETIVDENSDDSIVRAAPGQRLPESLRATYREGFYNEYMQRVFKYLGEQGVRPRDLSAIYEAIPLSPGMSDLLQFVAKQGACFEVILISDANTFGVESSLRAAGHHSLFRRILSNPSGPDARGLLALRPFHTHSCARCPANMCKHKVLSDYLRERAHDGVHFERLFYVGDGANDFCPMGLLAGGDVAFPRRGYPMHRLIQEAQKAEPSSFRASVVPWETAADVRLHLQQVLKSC

Phosphomannomutase 2 = Phosphomannomutase 2 (Homo sapiens, UniProt O15305); experiment: Counter screen SAR assay for PMM2 inhibitors via a fluorescence intensity assay. [Related pubchem assays (depositor defined):AID1545, AID1574]
[17] = target: Intestinal-type alkaline phosphatase (Homo sapiens, UniProt P09923); experiment: Dose Response confirmation of uHTS hits from a small molecule inhibitors of human intestinal alkaline phosphatase via a luminescent assay. [Related pubchem assays (depositor defined):AID2544, AID2574]; format: functional
[18] = microbe, parasite or virus in culture; format: functional; conditions: Mycobacterium tuberculosis
[19] = target: Female germline-specific tumor suppressor gld-1 (Caenorhabditis elegans, UniProt Q17339); experiment: blockers of GLD-1/TGE RNA complex formation – biochemical, fluorescence polarization, C. elegans, dose response (AID 2802);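 also: fluorescence polarization of labeled TGE RNA bound by purified gld-1 protein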
Chain of Female germline-specific tumor suppressor gld-1 (Q17339 whole entry): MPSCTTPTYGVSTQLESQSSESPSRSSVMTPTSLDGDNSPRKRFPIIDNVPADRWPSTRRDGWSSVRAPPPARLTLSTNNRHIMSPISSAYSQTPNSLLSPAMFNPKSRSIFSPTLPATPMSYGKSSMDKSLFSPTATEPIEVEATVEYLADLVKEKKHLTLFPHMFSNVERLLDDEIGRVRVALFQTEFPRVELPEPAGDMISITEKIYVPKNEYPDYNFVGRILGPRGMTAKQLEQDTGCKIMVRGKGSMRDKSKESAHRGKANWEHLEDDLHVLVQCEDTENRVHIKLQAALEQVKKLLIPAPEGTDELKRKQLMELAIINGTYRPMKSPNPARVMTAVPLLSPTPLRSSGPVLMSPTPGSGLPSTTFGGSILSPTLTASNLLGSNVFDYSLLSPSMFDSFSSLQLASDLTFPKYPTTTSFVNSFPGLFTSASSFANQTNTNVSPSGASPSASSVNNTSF

Protein Rev = Protein Rev (Human immunodeficiency virus type 1 group M subtype B (isolate HXB2)(HIV-1), UniProt P04618); experiment: blockers of HIV Rev/RRE RNA complex – biochemical, fluorescence polarization, HIV-1, dose response (AID 434976); set-up: species or system Human immunodeficiency virus 1
Chain of Protein Rev (P04618 whole entry): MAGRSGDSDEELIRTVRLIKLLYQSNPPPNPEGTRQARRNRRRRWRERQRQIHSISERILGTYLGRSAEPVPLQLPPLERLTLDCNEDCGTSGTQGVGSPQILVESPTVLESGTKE

[20] = target: Eukaryotic translation initiation factor 4E (Mus musculus, UniProt P63073); experiment: blockers of eIF4G binding by eIF4E – biochemical, TR-FRET, dose response (AID 855); format: functional;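 also: potency for disrupting eIF4E binding to eIF4GI seen as loss of FRET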
Chain of Eukaryotic translation initiation factor 4E (P63073 whole entry): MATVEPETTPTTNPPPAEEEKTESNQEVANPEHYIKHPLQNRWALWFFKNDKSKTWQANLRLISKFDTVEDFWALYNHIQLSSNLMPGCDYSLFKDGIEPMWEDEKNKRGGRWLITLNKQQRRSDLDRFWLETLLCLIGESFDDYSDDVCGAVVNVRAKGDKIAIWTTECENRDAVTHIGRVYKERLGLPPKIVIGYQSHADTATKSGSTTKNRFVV

Genome polyprotein = Genome polyprotein (Hepatitis C virus, UniProt Q2Q167); experiment: disruption of hepatitis C core self-association – biochemical, TR-FRET, dose response (AID 2159); set-up: species or system Hepacivirus hominis;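 also: blocks dimerization of HCV core protein measured by TR-FRET between tagged core106 pairs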
Chain of Genome polyprotein (Q2Q167 whole entry): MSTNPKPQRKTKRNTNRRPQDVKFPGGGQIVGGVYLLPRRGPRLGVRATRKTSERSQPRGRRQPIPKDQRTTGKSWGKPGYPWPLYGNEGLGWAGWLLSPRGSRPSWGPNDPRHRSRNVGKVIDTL

Vero [21] = experiment: Vero 76 cell viability after compound exposure – Vero 76 cells, synthesized analogs, cytotoxicity control for West Nile virus antiviral project, SAR follow-up (AID 2414); format: functional; conditions: Chlorocebus sabaeus
Vero [22] = experiment: antiviral protection of cells from WNV – synthesized analogs, SAR follow-up (AID 2238); format: functional, cell-based; conditions: Chlorocebus sabaeus
Vero [23] = experiment: host cell viability loss, Vero E6 – synthesized analogs, cytotoxicity control for West Nile virus antiviral project, SAR follow-up (AID 2244); format: functional; conditions: Chlorocebus sabaeus
Vero [24] = experiment: Vero cell viability after compound exposure – synthesized analogs, set II, cytotoxicity control for West Nile virus antiviral project, SAR follow-up (AID 2402); format: functional; conditions: Chlorocebus sabaeus

In the case of `N#C/C(=C\c1cccn1S(=O)(=O)c1cccc([N+](=O)[O-])c1)S(=O)(=O)c1ccc(F)cc1`, the CC50 [1] is reported as 100 µM (active) and the IC50 [2] is reported as > 50 µM (inactive).
With `COC(=O)c1c(NC(=O)CN(c2ccccc2)S(C)(=O)=O)sc2c1CCCC2` the EC50 [3] was 0.577 µM (active).
With `O=S(=O)(/C(=C/c1ccc(C(F)(F)F)cc1)c1nc2ccccc2[nH]1)c1ccccc1` the AC50 (Paired box protein Pax-8) was 2.82 µM (active), the AC50 (INS1) was 4.43 µM (active) and the AC50 [4] was 3.54 µM (active). The EC50 [5] was 1.89 µM (active), the IC50 [6] was > 32 µM (inactive) and the EC50 (BJ) was 0.601 µM (active). For the same compound, the EC50 (Protein RecA) was 5.85 µM (active) and the EC50 [7] was 1.68 µM (active).
For `Cc1cc(Cl)ccc1NC(=O)C1CCN(C(=O)c2cccs2)CC1`, the IC50 [8] was > 100 µM (inactive) and the IC50 [9] was > 100 µM (inactive).
With `O=C1CC(Sc2nnc(-c3ccccc3O)o2)C(=O)N1c1ccccc1` (configuration not stated) the AC50 [10] was 12.9 µM (active), the AC50 [11] was 17.8 µM (active) and the AC50 [12] was 45.2 µM (active). The IC50 (Beta-galactosidase) was > 66.6 µM (inactive).
For `COc1ccc(Oc2c(Cl)cnn(-c3cccc(C#N)c3)c2=O)cc1`, the IC50 [13] was 2.8 µM (active) and the IC50 [14] was 14.2 µM (inactive).
For `O=c1c2ccccc2sn1-c1cc(S(=O)(=O)N2CCOCC2)ccc1N1CCCCC1`, the IC50 [15] was 39.2 µM (active), the IC50 [16] was 39.4 µM (inactive) and the IC50 (Phosphomannomutase 2) was > 100 µM (inactive).
With `O=C(NCCCN1CCOCC1)c1ccc2c(c1)N(Cc1ccc(Cl)cc1)C(=O)c1ccccc1[S+]2[O-]` (configuration not stated) the IC50 [17] was > 100 µM (inactive).
In the case of `CC1=CC(=O)c2c(O)ccc(O)c2C1=O`, the CC50 [18] is reported as 12.9 µM (active), the IC50 [19] is reported as 5.58 µM (active) and the IC50 (Protein Rev) is reported as > 75.4 µM (not active). For the same compound, the IC50 [20] was 10.3 µM (active) and the IC50 (Genome polyprotein) was > 49.8 µM (not active).
With `O=C(CSc1nc2ccccc2c(=O)n1-c1ccc(Cl)c(Cl)c1)Nc1ccc2c(c1)CCC2` the CC50 (Vero [21]) was > 66.6 µM (active), the IC50 (Vero [22]) was 17.3 µM (active) and the CC50 (Vero [23]) was > 40 µM (active). For the same compound, the CC50 (Vero [24]) was > 100 µM (active).
